Measurements as given in patent publication US20100305120A1, “COMPOUNDS FOR TREATING MUSCULAR DYSTROPHY” (BIOMARIN IGA LIMITED, priority 2008, published 2010).

test system: Utrophin A promoter linked to a luciferase reporter gene; test: Luciferase reporter assay (murine H2K cells), H2K/mdx/Utro A reporter cell line; type: cell-based; settings: 48 h; test compound concentration 10 μM; mdx mouse H2K Utrophin A reporter cells; read-out: Activity (luciferase level relative to control)
Protocol: Luciferase Reporter Assay (Murine H2K Cells)
The cell line used for the screen is an immortalized mdx mouse H2K cell line that has been stably transfected with a plasmid containing ≈5 kb fragment of the Utrophin A promoter including the first untranslated exon linked to a luciferase reporter gene.
Under conditions of low temperature and interferon containing media, the cells remain as myoblasts. These are plated into 96 well plates and cultured in the presence of compound for three days. The level of luciferase is then determined by cell lysis and reading of the light output from the expressed luciferase gene utilising a plate luminometer.
Luciferase Assay for 96 Well Plates
The H2K/mdx/Utro A reporter cell line cells were plated out into 96 well plates (Falcon 353296, white opaque) at a density of approximately 5000 cells/well in 190 μl normal growth medium. The plates were then incubated at 33° C. in the presence of 10% CO2 for 24 hrs.
Compounds were dosed by adding 10 μl of diluted compound to each well giving a final concentration of 10 μM (where a different final concentration was required, the amount of compound solution added was amended accordingly). The plates were then incubated for a further 48 hrs. Cells were then lysed in situ following the manufacture's protocols (Promega Steady-Glo Luciferase Assay System(E2520). Then counted for 10 seconds using a plate luminometer (Victor1420).
Compounds for screening were stored at −20° C. as 10 mM stocks in 100% DMSO until required.
Biological activity as assessed using the luciferase reporter assay in murine H2K cells, and the results are shown in Table 1, which also lists the concentration of the test compound solution in μM.

Compound	activity at 10 µM [%]
COc1ccc(NC(=O)c2nn(Cc3ccc(S(C)(=O)=O)cc3)c3ccccc23)cc1 [Compound 34, N-(4-methoxyphenyl)-1-(4-(methylsulfonyl)benzyl)-1H-indazole-3-carboxamide]	301 to 400
CS(=O)(=O)c1ccc(Cn2nc(C(=O)Nc3ccc4c(c3)OC(F)(F)O4)c3ccccc32)cc1 [Compound 35, N-(2,2-difluorobenzo[d][1,3]dioxol-5-yl)-1-(4-(methylsulfonyl)benzyl)-1H-indazole-3-carboxamide]	< 200
CON(C)S(=O)(=O)c1ccc(Cn2nc(C(=O)Nc3nccs3)c3ccccc32)cc1 [Compound 36, 1-(4-(N-methoxy-N-methylsulfamoyl)benzyl)-N-(thiazol-2-yl)-1H-indazole-3-carboxamide]	< 200
COc1ccc(CCNC(=O)Nc2nn(Cc3cc4c(cc3Cl)OCO4)c3ccccc23)cc1 [Compound 37, 1-(1-((6-chlorobenzo[d][1,3]dioxol-5-yl)methyl)-1H-indazol-3-yl)-3-(4-methoxyphenethyl)urea]	< 200
NC(=O)c1ccc(NC(=O)c2nn(Cc3ccc(C(=O)N4CCOCC4)cc3)c3ccccc23)cc1 [Compound 38, N-(4-carbamoylphenyl)-1-(4-(morpholine-4-carbonyl)benzyl)-1H-indazole-3-carboxamide]	201 to 300
CCN(CC)S(=O)(=O)c1ccc(Cn2nc(C(=O)Nc3ccccn3)c3ccccc32)cc1 [Compound 39, 1-(4-(N,N-diethylsulfamoyl)benzyl)-N-(pyridin-2-yl)-1H-indazole-3-carboxamide]	< 200
CCN(CC)S(=O)(=O)c1ccc(Cn2nc(C(=O)Nc3ccc4c(c3)C(=O)N(C)C4=O)c3ccccc32)cc1 [Compound 41, 1-(4-(N,N-diethylsulfamoyl)benzyl)-N-(2-methyl-1,3-dioxoisoindolin-5-yl)-1H-indazole-3-carboxamide]	< 200
CC(C)(C)c1ccc(Cn2nc(C(=O)Nc3ccc4c(c3)OCO4)c3ccccc32)cc1 [Compound 42, N-(benzo[d][1,3]dioxol-5-yl)-1-(4-tert-butylbenzyl)-1H-indazole-3-carboxamide]	> 401
O=C(Nc1ccc(N2CCCCC2)cc1)c1nn(CCOc2ccc(F)cc2)c2ccccc12 [Compound 43, 1-(2-(4-fluorophenoxy)ethyl)-N-(4-(piperidin-1-yl)phenyl)-1H-indazole-3-carboxamide]	< 200
COc1cccc(OCc2ccc(Cn3nc(NC(=O)NCc4ccccc4OC)c4ccccc43)cc2)c1 [Compound 44, 1-(2-methoxybenzyl)-3-(1-(4-((3-methoxyphenoxy)methyl)benzyl)-1H-indazol-3-yl)urea]	< 200
O=C(Nc1ccc2c(c1)OCO2)c1nn(CCCOc2ccccc2)c2ccccc12 [Compound 45, N-(benzo[d][1,3]dioxol-5-yl)-1-(3-phenoxypropyl)-1H-indazole-3-carboxamide]	> 401
O=C(Nc1ccc2c(c1)OCO2)c1nn(CCOc2ccc(F)cc2)c2ccccc12 [Compound 46, N-(benzo[d][1,3]dioxol-5-yl)-1-(2-(4-fluorophenoxy)ethyl)-1H-indazole-3-carboxamide]	< 200
O=C(NCc1ccccc1F)Nc1nn(Cc2cc3c(cc2Cl)OCO3)c2ccccc12 [Compound 47, 1-(1-((6-chlorobenzo[d][1,3]dioxol-5-yl)methyl)-1H-indazol-3-yl)-3-(2-fluorobenzyl)urea]	< 200
CC(C)(C)c1ccc(Cn2nc(C(=O)Nc3ccc4c(c3)OC(F)(F)O4)c3ccccc32)cc1 [Compound 48, 1-(4-tert-butylbenzyl)-N-(2,2-difluorobenzo[d][1,3]dioxol-5-yl)-1H-indazole-3-carboxamide]	< 200
CON(C)S(=O)(=O)c1ccc(Cn2nc(C(=O)Nc3ccccn3)c3ccccc32)cc1 [Compound 49, 1-(4-(N-methoxy-N-methylsulfamoyl)benzyl)-N-(pyridin-2-yl)-1H-indazole-3-carboxamide]	< 200
O=C(Nc1ccc2c(c1)OCO2)c1nn(Cc2ccc(-c3ccccc3)cc2)c2ccccc12 [Compound 50, N-(benzo[d][1,3]dioxol-5-yl)-1-(biphenyl-4-ylmethyl)-1H-indazole-3-carboxamide]	< 200
Cc1cccc(NC(=O)Nc2nn(Cc3ccc(COc4ccc5c(c4)OCO5)cc3)c3ccc(C(F)(F)F)cc23)c1 [Compound 51, 1-(1-(4-((benzo[d][1,3]dioxol-5-yloxy)methyl)benzyl)-5-(trifluoromethyl)-1H-indazol-3-yl)-3-m-tolylurea]	< 200

Compound	activity at 10 µM [%]
COc1cc(NC(=O)Nc2nn(Cc3cc4c(cc3Cl)OCO4)c3ccccc23)cc(OC)c1 [Compound 52, 1-(1-((6-chlorobenzo[d][1,3]dioxol-5-yl)methyl)-1H-indazol-3-yl)-3-(3,5-dimethoxyphenyl)urea]	< 200
O=C(Nc1ccc2c(c1)CCC2)Nc1nn(Cc2ccc(C(F)(F)F)cc2)c2ccccc12 [Compound 53, 1-(2,3-dihydro-1H-inden-5-yl)-3-(1-(4-(trifluoromethyl)benzyl)-1H-indazol-3-yl)urea]	< 200
COc1cccc(OCc2ccc(Cn3nc(NC(=O)Nc4ccc(OC)c(OC)c4)c4ccccc43)cc2)c1 [Compound 54, 1-(3,4-dimethoxyphenyl)-3-(1-(4-((3-methoxyphenoxy)methyl)benzyl)-1H-indazol-3-yl)urea]	< 200
O=C(NCc1ccco1)Nc1nn(Cc2cc3c(cc2Cl)OCO3)c2ccccc12 [Compound 55, 1-(1-((6-chlorobenzo[d][1,3]dioxol-5-yl)methyl)-1H-indazol-3-yl)-3-(furan-2-ylmethyl)urea]	< 200
COc1ccc(NC(=O)c2nn(CCOc3ccccc3)c3ccccc23)cc1 [Compound 56, N-(4-methoxyphenyl)-1-(2-phenoxyethyl)-1H-indazole-3-carboxamide]	< 200
Cc1ccc(NC(=O)Nc2nn(Cc3ccc(COc4ccc5c(c4)OCO5)cc3)c3ccc(C(F)(F)F)cc23)cc1 [Compound 57, 1-(1-(4-((benzo[d][1,3]dioxol-5-yloxy)methyl)benzyl)-5-(trifluoromethyl)-1H-indazol-3-yl)-3-p-tolylurea]	< 200
O=C(Nc1ccc2c(c1)OCO2)c1nn(CCOc2ccccc2)c2ccccc12 [Compound 58, N-(benzo[d][1,3]dioxol-5-yl)-1-(2-phenoxyethyl)-1H-indazole-3-carboxamide]	201 to 300
Cc1ccc(NC(=O)Nc2nn(Cc3ccc(C(F)(F)F)cc3)c3ccccc23)cc1 [Compound 59, 1-p-tolyl-3-(1-(4-(trifluoromethyl)benzyl)-1H-indazol-3-yl)urea]	< 200
CC(C)c1ccc(NC(=O)c2nn(CCOc3ccc(F)cc3)c3ccccc23)cc1 [Compound 60, 1-(2-(4-fluorophenoxy)ethyl)-N-(4-isopropylphenyl)-1H-indazole-3-carboxamide]	< 200
O=C(Nc1ccc(OC(F)(F)F)cc1)c1nn(Cc2ccc(C(=O)N3CCOCC3)cc2)c2ccccc12 [Compound 61, 1-(4-(morpholine-4-carbonyl)benzyl)-N-(4-(trifluoromethoxy)phenyl)-1H-indazole-3-carboxamide]	> 401
CC(C)c1ccc(NC(=O)c2nn(Cc3ccc(S(C)(=O)=O)cc3)c3ccccc23)cc1 [Compound 62, N-(4-isopropylphenyl)-1-(4-(methylsulfonyl)benzyl)-1H-indazole-3-carboxamide]	301 to 400
O=C(Nc1ccc2c(c1)OCO2)c1nn(Cc2ccc(C(=O)N3CCOCC3)cc2)c2ccccc12 [Compound 63, N-(benzo[d][1,3]dioxol-5-yl)-1-(4-(morpholine-4-carbonyl)benzyl)-1H-indazole-3-carboxamide]	> 401
NC(=O)c1ccc(NC(=O)c2nn(Cc3ccc(S(=O)(=O)N4CCOCC4)cc3)c3ccccc23)cc1 [Compound 64, N-(4-carbamoylphenyl)-1-(4-(morpholinosulfonyl)benzyl)-1H-indazole-3-carboxamide]	< 200
COc1ccc(NC(=O)c2nn(Cc3ccc(C(C)(C)C)cc3)c3ccccc23)cc1 [Compound 65, 1-(4-tert-butylbenzyl)-N-(4-methoxyphenyl)-1H-indazole-3-carboxamide]	201 to 300
C#CCN(C)S(=O)(=O)c1ccc(Cn2nc(C(=O)Nc3ccc(C(C)C)cc3)c3ccccc32)cc1 [Compound 66, N-(4-isopropylphenyl)-1-(4-(N-methyl-N-(prop-2-ynyl)sulfamoyl)benzyl)-1H-indazole-3-carboxamide]	< 200
O=C(Nc1ccccn1)c1nn(CCOc2ccc(F)cc2)c2ccccc12 [Compound 67, 1-(2-(4-fluorophenoxy)ethyl)-N-(pyridin-2-yl)-1H-indazole-3-carboxamide]	< 200

same assay, conditions: 48 h; test compound concentration 30 μM; mdx mouse H2K Utrophin A reporter cells; read-out: Activity (luciferase level relative to control)

Compound	activity at 30 µM [%]
O=C(Nc1ccccc1OC(F)(F)F)Nc1nn(Cc2ccc(C(F)(F)F)cc2)c2ccccc12 [Compound 40, 1-(2-(trifluoromethoxy)phenyl)-3-(1-(4-(trifluoromethyl)benzyl)-1H-indazol-3-yl)urea]	< 200
